Measurements reported in patent US8686113B2 (priority 2009, dated 2014).
Values after ≈ are worked out from the molar mass of the structure shown. Where two headings read alike, the source gives them in different places. Non-standard residues stand in square brackets, D forms with d. Residues, ends and D or L forms follow the SMILES beside them. No end group written: not given here. *: point of attachment. Hyp = O=C(O)[C@@H]1C[C@@H](O)CN1; Orn = NCCC[C@H](N)C(=O)O; NHPr = CCCN*

How the values were obtained:
E. coli 045-849 SENTRY = tested on: E. coli 045-849 SENTRY
Description: (§1) The minimum inhibitory concentrations (MIC) of the antimicrobial peptides and peptide derivatives were determined in microdilution assays. These used a continuous peptide dilution in sterile flat-bottomed 96-well microtiter plates (polystyrene, Greiner Bio-One GmbH, Frickenhausen, Germany) and a total volume of 100 μL per well. The aqueous peptide or peptidomimetic solutions were diluted with 1% TSB water, to obtain a final concentration of 256 μg/mL. 50 μL of the peptide or peptidomimetic solution was pipetted into the first well of each series and stirred. From this solution, 50 μL was transferred to the second well, stirred and again 50 μL was transferred to the next well, and so on. A double dilution series is obtained, beginning at 256 μg/mL in the first well to 125 ng/mL in the twelfth well. The bacteria, e.g. E. coli BL21 A1, were cultured overnight at 37° C. in nutrient broth (NB, Carl Roth GmbH+Co. KG, Karlsruhe, Germany). 50 μL of a 5×10^6 bacteria/mL suspension in 1% TSB was added to each well of the microtiter plate and thus a final concentration of the peptides or peptidomimetics from 128 μg/mL (well 1) to 62.5 ng/mL (well 12) was established in each series. The plates were incubated at 37° C. for 20 h and then the absorption was measured at 595 nm with a TECAN microtiter plate spectrophotometer (Tecan Trading AG, Mannedorf, Switzerland). The MIC values of all peptides and peptidomimetics were determined in triplicate. Sterile water was used as negative control.
(§2) The tests were in this case carried out in Mueller-Hinton medium (¼ concentrated), which is equivalent to 1% TSB.

[1] = tested on: K. pneumoniae K6 ATCC 700603; settings: ATCC 700603
Description: as §1, §2

K. pneumoniae 012-3131 = tested on: K. pneumoniae 012-3131
Description: as §1, §2

[2] = tested on: S. typhimurium ATCC 14028
Description: as §1, §2

E. coli ATCC BAA-457 = settings: ¼ Muller-Hinton medium
Description: as §1, §2

K. pneumoniae ATCC 27799 = settings: ATCC 27799
Description: as §1, §2

P. vulgaris ATCC 6896 = settings: ATCC 6896
Description: as §1, §2

[3] = tested on: S. typhimurium ATCC 700408
Description: as §1, §2

P. mirabilis ATCC 7002 = settings: ATCC 7002
Description: as §1, §2

[4] = tested on: P. aeruginosa 10 J. Wilson
Description: as §1, §2

[5] = tested on: S. typhimurium s5 (J. Weiser); settings: ¼ Muller-Hinton medium
Description: as §1, §2

E. coli D31 J. Wilson = settings: ¼ Muller-Hinton medium
Description: as §1, §2

M. luteus 10240 = assay: Growth inhibition assay (microdilution MIC); assay type: cell-based, Micrococcus luteus; settings: 10240, 20 h
Procedure, shortened: (§3)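 Broth microdilution in 1% TSB with twofold peptide series, final 128 μg/mL to 62.5 ng/mL, against 5×10^6 bacteria/mL stock suspension added 1:1. Incubated 20 h at 37 °C, growth read by absorbance at 595 nm; MIC is the lowest concentration with no growth, determined in triplicate.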

E. coli BL21 A1 = assay type: cell-based, Escherichia coli; settings: BL21, 20 h
Procedure, shortened: as §3

[6] = 25% aqueous mouse serum, 37° C., 75 μg/mL peptide
[7] = mouse, serum
[8] = tested on: Escherichia coli DSM 10233
Description: as §1
(§4) The peptides shown in Table 8 were investigated for their MIC against pathogenic bacteria such as E. coli DSM 10233, K. pneumoniae DSM 681 and P. aeruginosa DSM 3227.

[9] = tested on: Klebsiella pneumoniae DSM 681
Description: as §1, §4
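Wherever Half-life in 25% mouse serum is given: intact peptide left at successive time points measured by reversed-phase HPLC with an acetonitrile gradient in the supernatant after precipitation of serum proteins.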

| Compound | MIC M. luteus 10240 (M. luteus 10240) [mg/L] | MIC E. coli BL21 A1 (E. coli BL21 A1) [mg/L] | Half-life in 25% mouse serum [6] [h] | half-life [7] [h] | also measured |
| --- | --- | --- | --- | --- | --- |
| CC[C@H](C)[C@H](NC(=O)[C@H](CCCNC(=N)N)NC(=O)[C@H](CCCNC(=N)N)NC(=O)[C@@H]1CCCN1C(=O)[C@@H]1CCCN1C(=O)[C@H](CCCNC(=N)N)NC(=O)[C@@H]1CCCN1C(=O)[C@H](CCCNC(=N)N)NC(=O)[C@@H]1C[C@@H](O)CN1C(=O)[C@H](CC(C)C)NC(=O)[C@H](Cc1ccc(O)cc1)NC(=O)[C@@H]1CCCN1C(=O)[C@@H]1CCCN1C(=O)[C@H](CCCCN)NC(=O)[C@H](CC(=O)O)NC(=O)[C@@H](N)C(C)C)C(=O)N[C@@H](Cc1ccc(O)cc1)C(=O)N[C@@H](CC(N)=O)C(=O)N[C@@H](CCCNC(=N)N)C(N)=O [compound 22] (H-VDKPPYL[Hyp]RPRPPRRIYNR-NH2) | 4 (≈ 1.66 µM) | 8 (≈ 3.33 µM) |  |  | MIC E. coli 045-849 SENTRY (E. coli 045-849 SENTRY; 045-849 SENTRY): 4 mg/L (≈ 1.66 µM); MIC K. pneumoniae K6 ATCC 700603 [1]: 8 mg/L (≈ 3.33 µM); MIC K. pneumoniae 012-3131 (K. pneumoniae 012-3131): 4 mg/L (≈ 1.66 µM); MIC S. typhimurium ATCC 14028 [2]: 2 mg/L (≈ 0.831 µM); MIC E. coli SEQ 102ATCC # BAA-4 57 (E. coli ATCC BAA-457): 4 mg/L (≈ 1.66 µM); MIC K. pneumoniae ATCC 27799 (K. pneumoniae ATCC 27799): 16 mg/L (≈ 6.65 µM); MIC P. vulgaris ATCC 6896 (P. vulgaris ATCC 6896): 128 mg/L (≈ 53.2 µM); MIC S. typhimurium ATCC 700408 [3]: 0.5 mg/L (≈ 0.208 µM); MIC P. mirabilis ATCC 7002 (P. mirabilis ATCC 7002): 128 mg/L (≈ 53.2 µM); MIC P. aeruginosa 10 J. Wilson [4]: 16 mg/L (≈ 6.65 µM); MIC S. typhimurium s5 (J. Weiser) [5]: 8 mg/L (≈ 3.33 µM); MIC E. coli D31 J. Wilson (E. coli D31 J. Wilson): 2 mg/L (≈ 0.831 µM) |
| CC[C@H](C)[C@H](NC(=O)[C@H](CCCNC(=N)N)NC(=O)[C@H](CCCNC(=N)N)NC(=O)[C@@H]1CCCN1C(=O)[C@@H]1CCCN1C(=O)[C@H](CCCNC(=N)N)NC(=O)[C@@H]1CCCN1C(=O)[C@H](CCCNC(=N)N)NC(=O)[C@@H]1CCCN1C(=O)[C@H](CC(C)C)NC(=O)[C@H](Cc1ccc(O)cc1)NC(=O)[C@@H]1CCCN1C(=O)[C@@H]1CCCN1C(=O)[C@H](CCCCN)NC(=O)[C@H](CC(=O)O)NC(=O)[C@@H](N)C(C)C)C(=O)N[C@@H](Cc1ccc(O)cc1)C(=O)N[C@@H](CC(N)=O)C(=O)N[C@@H](CCCN)C(N)=O [compound 50] (H-VDKPPYLPRPRPPRRIYN[Orn]-NH2) | 16 (≈ 6.81 µM) | 8 (≈ 3.41 µM) | 2 |  |  |
| CCCNC(=O)[C@H](CCCNC(=N)N)NC(=O)[C@H](CC(N)=O)NC(=O)[C@H](Cc1ccc(O)cc1)NC(=O)[C@@H](NC(=O)[C@H](CCCNC(=N)N)NC(=O)[C@H](CCCNC(=N)N)NC(=O)[C@@H]1CCCN1C(=O)[C@@H]1CCCN1C(=O)[C@H](CCCNC(=N)N)NC(=O)[C@@H]1CCCN1C(=O)[C@H](CCCNC(=N)N)NC(=O)[C@@H]1CCCN1C(=O)[C@H](CC(C)C)NC(=O)[C@H](Cc1ccc(O)cc1)NC(=O)[C@@H]1CCCN1C(=O)[C@@H]1CCCN1C(=O)[C@H](CCCCN)NC(=O)[C@H](CC(=O)O)NC(=O)[C@@H](N)C(C)C)[C@@H](C)CC [compound 58] (H-VDKPPYLPRPRPPRRIYNR-NHPr) | 8 (≈ 3.29 µM) | 4 (≈ 1.64 µM) | >2 | 1 |  |
| CC[C@H](C)[C@H](NC(=O)[C@H](CCCN)NC(=O)[C@H](CCCNC(=N)N)NC(=O)[C@@H]1CCCN1C(=O)[C@@H]1CCCN1C(=O)[C@H](CCCNC(=N)N)NC(=O)[C@@H]1CCCN1C(=O)[C@H](CCCNC(=N)N)NC(=O)[C@@H]1CCCN1C(=O)[C@H](CC(C)C)NC(=O)[C@H](Cc1ccc(O)cc1)NC(=O)[C@@H]1CCCN1C(=O)[C@@H]1CCCN1C(=O)[C@H](CCCCN)NC(=O)[C@H](CC(=O)O)NC(=O)[C@@H](N)C(C)C)C(=O)N[C@@H](Cc1ccc(O)cc1)C(=O)N[C@@H](CC(N)=O)C(=O)N[C@@H](CCCNC(=N)N)C(N)=O [compound 61] (H-VDKPPYLPRPRPPR[Orn]IYNR-NH2) | 16 (≈ 6.81 µM) | 8 (≈ 3.41 µM) | 1.5 | 1.08 |  |
| CCCNC(=O)[C@H](CCCNC(=N)N)NC(=O)[C@H](CC(N)=O)NC(=O)[C@H](Cc1ccc(O)cc1)NC(=O)[C@@H](NC(=O)[C@H](CCCN)NC(=O)[C@H](CCCNC(=N)N)NC(=O)[C@@H]1CCCN1C(=O)[C@@H]1CCCN1C(=O)[C@H](CCCNC(=N)N)NC(=O)[C@@H]1CCCN1C(=O)[C@H](CCCNC(=N)N)NC(=O)[C@@H]1CCCN1C(=O)[C@H](CC(C)C)NC(=O)[C@H](Cc1ccc(O)cc1)NC(=O)[C@@H]1CCCN1C(=O)[C@@H]1CCCN1C(=O)[C@H](CCCCN)NC(=O)[C@H](CC(=O)O)NC(=O)[C@@H](N)C(C)C)[C@@H](C)CC [compound 71] (H-VDKPPYLPRPRPPR[Orn]IYNR-NHPr) | 8 (≈ 3.35 µM) |  | >6 | 1.75 |  |
| CC[C@H](C)[C@H](NC(=O)[C@@H](CCCNC(=N)N)NC(=O)[C@H](CCCNC(=N)N)NC(=O)[C@@H]1CCCN1C(=O)[C@@H]1CCCN1C(=O)[C@H](CCCNC(=N)N)NC(=O)[C@@H]1CCCN1C(=O)[C@H](CCCNC(=N)N)NC(=O)[C@@H]1CCCN1C(=O)[C@H](CC(C)C)NC(=O)[C@H](Cc1ccc(O)cc1)NC(=O)[C@@H]1CCCN1C(=O)[C@@H]1CCCN1C(=O)[C@H](CCCCN)NC(=O)[C@H](CC(=O)O)NC(=O)[C@@H](N)C(C)C)C(=O)N[C@@H](Cc1ccc(O)cc1)C(=O)N[C@@H](CC(N)=O)C(=O)N[C@@H](CCCNC(=N)N)C(N)=O [compound 111] (H-VDKPPYLPRPRPPR[dR]IYNR-NH2) | 4 (≈ 1.67 µM) | 4 (≈ 1.67 µM) |  |  | MIC E. coli DSM 10233 [8]: 4 mg/L (≈ 1.67 µM); MIC K. pneumoniae DSM 681 [9]: 4 mg/L (≈ 1.67 µM) |
| CC[C@@H](C)[C@@H](NC(=O)[C@@H](Cc1ccc(O)cc1)NC(=O)[C@@H](CC(N)=O)NC(=O)[C@H](N)CCCNC(=N)N)C(=O)N[C@H](CCCNC(=N)N)C(=O)N[C@H](CCCNC(=N)N)C(=O)N1CCC[C@@H]1C(=O)N1CCC[C@@H]1C(=O)N[C@H](CCCNC(=N)N)C(=O)N1CCC[C@@H]1C(=O)N[C@H](CCCNC(=N)N)C(=O)N1CCC[C@@H]1C(=O)N[C@H](CC(C)C)C(=O)N[C@H](Cc1ccc(O)cc1)C(=O)N1CCC[C@@H]1C(=O)N1CCC[C@@H]1C(=O)N[C@H](CCCCN)C(=O)N[C@H](CC(=O)O)C(=O)N[C@@H](C(N)=O)C(C)C [compound 117] (H-[dR][dN][dY][dI][dR][dR][dP][dP][dR][dP][dR][dP][dL][dY][dP][dP][dK][dD][dV]-NH2) | 32 (≈ 13.4 µM) | 64 (≈ 26.8 µM) |  |  | MIC E. coli DSM 10233 [8]: >32 mg/L; MIC K. pneumoniae DSM 681 [9]: >32 mg/L |
| VDKPPYLPRPRPPRRIYNNR [compound 14] | 16 | 8 | <0.5 |  | MIC E. coli 045-849 SENTRY (E. coli 045-849 SENTRY; ¼ Muller-Hinton medium): 4 mg/L; MIC K. pneumoniae K6 ATCC 700603 [1]: 64 mg/L; MIC K. pneumoniae 012-3131 (K. pneumoniae 012-3131): 32 mg/L; MIC E. coli SEQ 102ATCC # BAA-4 57 (E. coli ATCC BAA-457): 64 mg/L; MIC K. pneumoniae ATCC 27799 (K. pneumoniae ATCC 27799): 128 mg/L; MIC E. coli D31 J. Wilson (E. coli D31 J. Wilson): 32 mg/L |
| VDKPPYLPRPRPPRRIYNR [compound 19] | 64 | 32 | <0.5 |  |  |
